Source: patent US11466273B2, “Monocarboxylate transporter 4 (MCT4) antisense oligonucleotide (ASO) inhibitors for use as therapeutics in the treatment of cancer” (THE UNIVERSITY OF BRITISH COLUMBIA, priority 2015, dated 2022)
Strand notation (5' to 3'): a small letter for the sugar, then the base; units joined by * are phosphorothioate-linked, units joined directly phosphodiester-linked; [ ] holds rarer units or linkages, { } end groups; capitals alone tell only the bases. d = 2'-deoxy (DNA)

test system: MCT4; experiment: Percent inhibition of MCT4 by MCT4 ASOs (knock-down after transfection, qPCR/Western blot); format: cell-based, human; conditions: Table A; ASOs transfected at 100 nM for 48 hours unless otherwise indicated
Method: First-generation phosphorothioate-modified ASOs against human MCT4 were rationally designed by selecting sequences containing favourable motifs while excluding unfavourable ones (Matveeva et al., 2000). Specificity of MCT4-targeting sequences, compared to human and mouse genes (at least 3 of 20 bases mismatched), was evaluated using BLAST. Ten sequences SEQ ID No: 1, 4, 5, 9, 11, 30, 36, 37, 40 and 41 (see TABLE A) distributed throughout the length of the transcript with perfect complementarity to all human MCT4 transcript variants (NM_001042422.2, NM_001042423.2, NM_001206950.1, NM_001206951.1, NM_001206952.1, and NM_004207.3) were selected and synthesized by Eurofins MWG Operon. The knock-down efficiencies of these ten ASOs were tested by determining target mRNA and protein expression 48 hours after transfection of cells using qPCR and Western blotting. Two candidate ASOs (#1 and #14—SEQ ID NOs: 1 and 5, respectively) were selected for further studies. Sequences: ASO #1 (SEQ ID NO: 1), 5′-[…]-3′; ASO #14 (SEQ ID NO: 5), 5′-[…]-3′; a published non-targeting control ASO, 5′-[…]-3′ (Mullick et al., 2011; Samuel et al., 2006).
Cells were transfected in 6-well plates with ASOs at 100 nM for 48 hours (unless otherwise indicated) using Oligofectamine™ (Invitrogen™, Carlsbad, Calif.) or with MCT4-targeting siRNAs and controls (Dharmacon™, Chicago, Ill.) at 50 nM for 48 hours using Lipofectamine™ 2000 (Invitrogen™), following the manufacturer's instructions.
Total RNA was isolated using the RNeasy Mini Kit™ (Qiagen Inc.™, Hilden, Germany) and cDNA synthesized using the QuantiTect Reverse Transcription Kit™ (Qiagen™). Primers were designed using Primer-BLAST™. qRT-PCR reactions using KAPA SYBR Fast Universal™ (Kapa Biosystems™, Woburn, Mass.) were performed in triplicate in a ViiA 7 Real-Time PCR™ system (Applied Biosystems™, Foster City, Calif.). Target genes were normalized to a geometric average of 3 internal reference genes (Vandesompele et al., 2002).
Cells were harvested and lysed in RIPA buffer (50 mM Tris-Cl pH 7.4, 150 mM NaCl, 1% Igepal, 0.5% Na-deoxycholate, 0.1% SDS) supplemented with a complete protease inhibitor cocktail (Roche, Nutley, N.J.). The protein concentration of the lysate was determined by Pierce BCA Protein Assay™ (Thermo Scientific™, Waltham, Mass.). The lysate was run on 8% SDS polyacrylamide gel (20 ug of protein per lane) and proteins were transferred onto PVDF membrane (Millipore™, Billerica, Mass.). The blot was blocked with the Odyssey™ blocking buffer (Li-cor Biosciences™) and probed with anti-MCT4 antibody. Vinculin was used as a loading control. Following overnight incubation at 4° C., the primary antibody was probed with the corresponding secondary antibody and detected using the Odyssey Infrared Imaging System™ (Li-cor Biosciences™) and Image Studio Version 3.1™ (Li-cor Biosciences™). Densitometry analysis was done using ImageJ (U.S. National Institutes of Health, Bethesda, Md.).

| Compound | % MCT4 Inhibition [%] |
| --- | --- |
| 4 (TTGGCGTAGCTCACCACGAA; antisense; DNA, all phosphorothioate, methylation of C not given here; listed as Homo sapiens) [compound 4] | 77.13 |
| 16 (dA*dG*dA*dC*dC*dC*dC*dC*dC*dA*dC*dA*dA*dG*dC*dA*dT*dG*dA*dC; antisense; listed as Homo sapiens) [compound 16] | 55.47 |
| 30 (dG*dA*dA*dT*dG*dA*dC*dA*dC*dG*dG*dT*dT*dC*dC*dC*dA*dC*dC*dC; antisense; listed as Homo sapiens) [compound 30] | 25.51 |
| 38 (dG*dG*dC*dC*dA*dC*dC*dG*dC*dC*dT*dC*dC*dA*dT*dC*dA*dG*dC*dA; antisense; listed as Homo sapiens) [compound 38] | 45.92 |
| 5 (AGATGCAGAAGACCACGAGG; antisense; DNA, all phosphorothioate, methylation of C not given here; listed as Homo sapiens) [compound 5] | 78.16 |
| 43 (TTAAAGTCACGTTGTCTCG; listed as DNA, chemistry not fully specified; listed as Homo sapiens) [compound 43] | 0.27 |
| 3 (AAGGACGCAGCCACCATGCC; antisense; DNA, all phosphorothioate, methylation of C not given here; listed as Homo sapiens) [compound 3] | 71.19 |
| 22 (dC*dA*dG*dG*dG*dC*dA*dC*dA*dC*dA*dG*dG*dA*dA*dG*dA*dC*dA*dG; antisense; listed as Homo sapiens) [compound 22] | 79.96 |
| 45 (dC*dA*dC*dA*dG*dC*dT*dC*dC*dT*dC*dC*dC*dA*dT*dG*dG*dC*dC*dA*dG*dG; listed as Rattus norvegicus) [compound 45] | 22.4 |
| 18 (dC*dC*dC*dG*dT*dT*dG*dG*dC*dC*dA*dT*dG*dG*dG*dG*dC*dG*dC*dC; antisense; listed as Homo sapiens) [compound 18] | 71.14 |
| 11 (CTCAGGCTGTGGCTCTTTGG; antisense; DNA, all phosphorothioate, methylation of C not given here; listed as Homo sapiens) [compound 11] | 63.01 |
| 15 (dC*dA*dG*dG*dA*dT*dG*dG*dA*dG*dG*dA*dG*dA*dT*dC*dC*dA*dG*dG; antisense; listed as Homo sapiens) [compound 15] | 75.58 |
| 1 (TCCCATGGCCAGGAGGGTTG; antisense; DNA, all phosphorothioate, methylation of C not given here; listed as Homo sapiens) [compound 1] | 65.52 |

same assay, conditions: Table B; SEQ ID NO 1 and 16 mer truncations

| Compound | % MCT4 Inhibition [%] |
| --- | --- |
| 1 (TCCCATGGCCAGGAGGGTTG; antisense; DNA, all phosphorothioate, methylation of C not given here; listed as Homo sapiens) [compound 1] | 65.52 |

test system: PC3 cells; experiment: Combination screening, total live PC3 cell numbers; format: cell-based, human; conditions: Homo sapiens, PC-3; approximate IC50 used for combination screening, 48 hours; read-out: IC50 Concentration
Description: Human PC-3 and DU145 CRPC cells, human LNCaP prostate cancer cells, and mouse TRAMPC2 prostate cancer cells were purchased from the American Type Culture Collection (ATCC); C4-2 CRPC cells were from the Vancouver Prostate Centre, Vancouver, BC, Canada. Human monolayer cultures were maintained in RPMI-1640 (GE Healthcare Hyclone™, Logan, Utah) supplemented with 10% fetal bovine serum (FBS) (GE Healthcare Hyclone™, Logan, Utah) while TRAMPC2 cells were maintained in DMEM (GE Healthcare Hyclone™, Logan, Utah) supplemented with 5% FBS. For cell counting, cells were trypsinized to form a single cell suspension and counted using a TC20 Automated Cell Counter (Bio-Rad, Hercules, Calif.). Cell viability was assessed by trypan blue exclusion.
Various combination strategies were screened at the approximate IC50 concentrations to determine whether synergistic effects may be found by combining current cancer therapeutics (see TABLE D) with MCT4 ASO SEQ ID NO:5. In FIGS. 10 A-C, the total live PC3 cell numbers were assessed 48 hours after treatment with Metformin, Doxycycline and docetaxel both alone and in combination with MCT4 ASO SEQ ID NO:5.

| Compound | IC50 [µM] |
| --- | --- |
| CN(C)C(=N)N=C(N)N [Metformin] | 4000 |
| C[C@H]1c2cccc(O)c2C(=O)C2=C(O)[C@]3(O)C(=O)C(C(N)=O)=C(O)[C@@H](N(C)C)[C@@H]3[C@@H](O)[C@@H]21 [Doxycycline] | 15 |
| CC(=O)O[C@@]12CO[C@@H]1C[C@H](O)[C@@]1(C)C(=O)[C@H](O)C3=C(C)[C@@H](OC(=O)[C@H](O)[C@@H](NC(=O)OC(C)(C)C)c4ccccc4)C[C@@](O)([C@@H](OC(=O)c4ccccc4)[C@H]21)C3(C)C [Docetaxel] | 0.0025 |
